Source: patent US7772255B2, “Method of treating tumors with azaxanthones” (Supratek Pharma, Inc., priority 2005, dated 2010)
Structures can show the parent of a compound that is named as a salt. Where two headings read alike, the source gives them in different places.

Legend:
[1] = Bioavailability and pharmacokinetics in normal rats; assay type: in vivo, rat; conditions: for clearance / Vd / AUC / Cmax / MRT / half-life / bioavailability: female, CD; for clearance / Vd / AUC / Cmax / MRT / half-life / CL / Vss: rat plasma; for Vd: read-out: Vss; for AUC / Cmax / MRT / half-life / bioavailability: rat, plasma; for bioavailability: salt, read-out: Bioavailability for oral administration; for CL / Vss: oral
Method: Female CD rats (from 200 to 250 g body weight) were obtained from Charles River Canada Inc. (St. Constant, Quebec, Canada). The animals were kept 4 per cage with an air filter cover under light (12 h light/dark cycle, light on at 06 h 00) and temperature (22°±1° C.)-controlled environment. All manipulations with the animals were performed under a sterilized laminar hood. The animals had ad libitum access to Purina rat chow (Pro Lab PMH 4018, Trademark of Agway, Syracuse, N.Y.) and water. The animal studies were conducted according to the “Guidelines for Care and Use of Experimental Animals”.
For Amlexanox salt the dosing solution was prepared by dissolving 20 mg of Amlexanox in equi-molar NaOH solution and then, equilibrated with 1M Tris-HCl pH 7.4. For Amlexanox acid the dosing solution was prepared by simple suspending 20 mg of Amlexanox in 1% methyl cellulose in water.
Amlexanox dosing solution (20 mg/mL) was administered i.v. and orally in normal rats (four animals in each group) at doses of 10, 25, 50, 100 and 200 mg/kg. After various time intervals (30 min and 1, 3, 6, 10 and 24 h) post-injection, blood was collected from eye vein of animals. Then, blood was immediately centrifuged, and plasma was separated. The plasma samples were immediately frozen in dry ice and stored at −80° C. until further use.
The defrosted plasma samples were centrifuged at 2000 g for 5 min, and aliquots (10 μL) of each sample were transferred into 1.5-ml plastic tubes. The samples were diluted with phosphate buttered saline (PBS) in various amounts of times and aliquots of 100 μL were transferred into the other 1.5-ml plastic tubes. The samples were extracted with 1 mL of 100% acetonitrile for 10 min on 180° rotator. Then, the tubes were centrifuged at 10,000 g for 15 min.
(§1) The supernatant was separated to glass tubes and evaporated in a stream of nitrogen at […]. until dryness. The dried samples were kept at −20° C. until HPLC analysis. The samples were reconstituted in 100 μL of mobile phase analyze before analyze by HPLC.
(§2) The samples were analysed by HPLC using 250×4.6 mm, Phenomenex C18 Luna, 5 micron column, 1 mL/min flow rate of mobile phase 73% of 25 mM sodium phosphate pH 7.5 and 27% acetonitrile; fluorescent deyection λexcitation=348 nm, λemission=404 nm.
The concentrations of Amlexanox in samples were determined by comparison with calibration curve obtained from spiked rat plasma samples using the same analytical method. The areas under the curves (AUC) of Amlexanox were calculated by trapezoidal method.

[2] = Pharmacokinetics in normal dogs; assay type: in vivo, dog (Canis familiaris); conditions: dog plasma, oral, 10 mg/kg, listed as Amlexanox Na Salt, sodium salt
Method: Experiments were performed in 6 male Beagle dogs (Canis familiaris) (from 8 to 14 kg body weight, 2 to 3 years of age). The animals had ad libitum access to tap water. Commercial dog chow was provided to the animals once daily during a 2-hour feeding period.
Dosing solution of amlexanox salt was prepared by simple dissolving of amlexanox salt in water. Dosing solution of amlexanox acid was prepared suspending of amlexanox acid in 0.5% methyl cellulose.
Amlexanox acid and Na salt forms were orally administered by gavage in dogs (three animals in each group) at doses of 10 mg/kg. Amlexanox tablets L and CP, prepared according to Example 13, were administered to dogs orally at doses of 10 mg/kg. After various time intervals (pre-dose, 15, 30 min and 1, 2, 3, 6, 8, 12, 24 and 48 h) post-injection, blood was collected from the jugular vein of animals. Then, blood was immediately centrifuged, and plasma was separated. The plasma samples were immediately frozen in dry ice and stored at −80° C. until further use.
The defrosted plasma samples were centrifuged at 2000 g for 5 min, and aliquots (10 μL) of each sample were transferred into 1.5-ml plastic tubes. The samples were diluted with PBS in various amounts of times and aliquots of 100 μL were transferred into the other 1.5-ml plastic tubes. The samples were extracted with 1 mL of 100% acetonitrile for 10 min on 180° rotator. Then, the tubes were centrifuged at 10,000 g for 15 min.
as §1, §2
The concentrations of amlexanox in samples were determined by comparison with calibration curve obtained from spiked dog plasma samples using the same analytical method. The areas under the curves (AUC) of amlexanox were calculated by trapezoidal method.

CC(C)c1ccc2oc3nc(N)c(C(=O)O)cc3c(=O)c2c1 [Amlexanox (salt), 2-amino-7-isopropyl-1-azaxanthone-3-carboxylic acid sodium salt]
clearance ([1]; iv, I.V., 10 mg/kg): 50 mL/min/kg
Vd ([1]; iv, I.V., 10 mg/kg): 2.26 L/kg
clearance ([1]; iv, I.V., 25 mg/kg): 8.83 mL/min/kg
Vd ([1]; iv, I.V., 25 mg/kg): 0.99 L/kg
clearance ([1]; iv, I.V., 50 mg/kg): 1.67 mL/min/kg
Vd ([1]; iv, I.V., 50 mg/kg): 0.1 L/kg
clearance ([1]; iv, I.V., 100 mg/kg): 2.17 mL/min/kg
Vd ([1]; iv, I.V., 100 mg/kg): 0.14 L/kg
clearance ([1]; iv, I.V., 200 mg/kg): 4.5 mL/min/kg
Vd ([1]; iv, I.V., 200 mg/kg): 0.51 L/kg
AUC ([1]; iv, 10 mg/kg, I.V.): 3300 ng·h/mL
Cmax ([1]; iv, 10 mg/kg, I.V.): 4500 ng/mL
MRT ([1]; iv, 10 mg/kg, I.V.): 0.75 h
half-life ([1]; iv, 10 mg/kg, I.V.): 0.52 h
AUC ([1]; iv, 25 mg/kg, I.V.): 47000 ng·h/mL
Cmax ([1]; iv, 25 mg/kg, I.V.): 33400 ng/mL
MRT ([1]; iv, 25 mg/kg, I.V.): 1.87 h
half-life ([1]; iv, 25 mg/kg, I.V.): 1.29 h
AUC ([1]; iv, 50 mg/kg, I.V.): 217000 ng·h/mL
Cmax ([1]; iv, 50 mg/kg, I.V.): 165000 ng/mL
MRT ([1]; iv, 50 mg/kg, I.V.): 1.05 h
half-life ([1]; iv, 50 mg/kg, I.V.): 0.69 h
AUC ([1]; iv, 100 mg/kg, I.V.): 398000 ng·h/mL
Cmax ([1]; iv, 100 mg/kg, I.V.): 216000 ng/mL
MRT ([1]; iv, 100 mg/kg, I.V.): 1.14 h
half-life ([1]; iv, 100 mg/kg, I.V.): 0.75 h
AUC ([1]; iv, 200 mg/kg, I.V.): 739000 ng·h/mL
Cmax ([1]; iv, 200 mg/kg, I.V.): 466000 ng/mL
MRT ([1]; iv, 200 mg/kg, I.V.): 1.89 h
half-life ([1]; iv, 200 mg/kg, I.V.): 1.31 h
AUC ([1]; po, 10 mg/kg, salt solution): 1040 ng·h/mL
Cmax ([1]; po, 10 mg/kg, salt solution): 190 ng/mL
MRT ([1]; po, 10 mg/kg, salt solution): 8.29 h
half-life ([1]; po, 10 mg/kg, salt solution): 5.76 h
bioavailability ([1]; po, 10 mg/kg, 10 mg/kg): 31.2%
AUC ([1]; po, 25 mg/kg, salt solution): 2200 ng·h/mL
Cmax ([1]; po, 25 mg/kg, salt solution): 550 ng/mL
MRT ([1]; po, 25 mg/kg, salt solution): 7.71 h
half-life ([1]; po, 25 mg/kg, salt solution): 5.33 h
bioavailability ([1]; po, 25 mg/kg, 25 mg/kg): 4.7%
AUC ([1]; po, 50 mg/kg, salt solution): 4470 ng·h/mL
Cmax ([1]; po, 50 mg/kg, salt solution): 1590 ng/mL
MRT ([1]; po, 50 mg/kg, salt solution): 7.28 h
half-life ([1]; po, 50 mg/kg, salt solution): 5.04 h
bioavailability ([1]; po, 50 mg/kg, 50 mg/kg): 2.1%
AUC ([1]; po, 100 mg/kg, salt solution): 41200 ng·h/mL
Cmax ([1]; po, 100 mg/kg, salt solution): 19800 ng/mL
MRT ([1]; po, 100 mg/kg, salt solution): 2.05 h
half-life ([1]; po, 100 mg/kg, salt solution): 1.42 h
bioavailability ([1]; po, 100 mg/kg, 100 mg/kg): 10.3%
AUC ([1]; po, 200 mg/kg, salt solution): 200000 ng·h/mL
Cmax ([1]; po, 200 mg/kg, salt solution): 95200 ng/mL
MRT ([1]; po, 200 mg/kg, salt solution): 1.77 h
half-life ([1]; po, 200 mg/kg, salt solution): 1.23 h
bioavailability ([1]; po, 200 mg/kg, 200 mg/kg): 27.1%
CL ([1]; salt solution, 10 mg/kg): 160 mL/min/kg
Vss ([1]; salt solution, 10 mg/kg): 79.8 L/kg
CL ([1]; salt solution, 25 mg/kg): 190 mL/min/kg
Vss ([1]; salt solution, 25 mg/kg): 87.7 L/kg
CL ([1]; salt solution, 50 mg/kg): 187 mL/min/kg
Vss ([1]; salt solution, 50 mg/kg): 81.4 L/kg
CL ([1]; salt solution, 100 mg/kg): 40.5 mL/min/kg
Vss ([1]; salt solution, 100 mg/kg): 4.99 L/kg
CL ([1]; salt solution, 200 mg/kg): 8.3 mL/min/kg
Vss ([1]; salt solution, 200 mg/kg): 0.89 L/kg
AUC [2]: 29000 ng·h/mL
CL [2]: 5 mL/min/kg
Cmax [2]: 10700 ng/mL
MRT [2]: 2.5 h
Vss [2]: 0.9 L/kg
t1/2 [2]: 1.8 h
